In brackets after ≈: the same amount, converted by molar mass. Read-outs that look alike come from different tables or passages of the source.
Legend:
Assay type in all cases: cell-based
C. albicans ATCC 90028 = experiment: Anti-Fungal (Candida) Activity Assay, broth microtiter MIC; details: ATCC90028, 48 h, 3 replicates, MIC read at 48 h
Procedure, shortened: (§1)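 Broth microdilution per CLSI M27-A3 in RPMI 1640 + MOPS, at a final inoculum of 2.5×10^3 CFU/mL. Compound DMSO stocks were diluted in water to a 128 μg/mL working solution. MIC was read visually against the growth control at 48 h.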

[1] = system: C. parapsilosis ATCC 22019; experiment: as above; details: Lodderomyces parapsilosis, ATCC22019, 48 h, 3 replicates, MIC read at 48 h
Procedure, shortened: as §1

Botrtyis cinerea (Bc) = experiment: Growth inhibition assay of fungal pathogens; details: 48 h, read-out: Concentration at 90% Inhibition Bc
Procedure, shortened: (§2)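 Percent growth inhibition is scored at 48 h, by OD600 (blank-subtracted) and visual rating against the 2% DMSO control. Compounds were tested at final 50, 10, 2 ppm or 2, 0.4, 0.08 ppm on pathogen spores diluted in 17% V8 medium; mycelial plugs in ¼ PDB were used for Rhizoctonia.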

[2] = system: Collectotrichum graminicola (Cg); experiment: Growth inhibition assay of fungal pathogens; details: 48 h, read-out: Concentration at 90% Inhibition Cg
Procedure, shortened: as §2

Diplodia maydis (Dm) = experiment: Growth inhibition assay of fungal pathogens; details: Stenocarpella maydis, 48 h, read-out: Concentration at 90% Inhibition Dm
Procedure, shortened: as §2

[3] = system: Fusarium moniliforme (Fm); experiment: Growth inhibition assay of fungal pathogens; details: Fusarium verticillioides, 48 h, read-out: Concentration at 90% Inhibition Fm
Procedure, shortened: as §2

[4] = system: Fusarium virguliforme (Fv); experiment: Growth inhibition assay of fungal pathogens; details: 48 h, read-out: Concentration at 90% Inhibition Fv
Procedure, shortened: as §2

[5] = system: Phytophthora capsici (Pc); experiment: Growth inhibition assay of fungal pathogens; details: 48 h, read-out: Concentration at 90% Inhibition Pc
Procedure, shortened: as §2

Rhizoctonia solani (Rs) = experiment: Growth inhibition assay of fungal pathogens; details: 48 h, read-out: Concentration at 90% Inhibition Rs
Procedure, shortened: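 Spores, or mycelial plugs for Rhizoctonia, in 17% V8 medium (¼ PDB for plugs) were exposed to compound at final 50, 10 and 2 ppm or 2, 0.4 and 0.08 ppm, with 2% DMSO. Growth was read by OD600 with blank subtraction plus visual rating; percent inhibition at 48 h is relative to 2% DMSO control.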

Septoria tritici (St) = experiment: Growth inhibition assay of fungal pathogens; details: Zymoseptoria tritici, 48 h, read-out: Concentration at 90% Inhibition St
Procedure, shortened: as §2

SMILES | MIC (C. albicans ATCC 90028; Table 3a) | MIC (C. albicans ATCC 90028; Table 3b (additional results)) | MIC ([1]; Table 3a) | MIC ([1]; Table 3b (additional results)) | IC90 (Botrtyis cinerea (Bc); Table 4a) | IC90 (Botrtyis cinerea (Bc); Table 4b) | IC90 ([2]; Table 4a) | IC90 ([2]; Table 4b) | IC90 (Diplodia maydis (Dm); Table 4a) | IC90 (Diplodia maydis (Dm); Table 4b) | IC90 ([3]; Table 4a) | IC90 ([3]; Table 4b) | IC90 ([4]; Table 4a) | IC90 ([4]; Table 4b) | IC90 ([5]; Table 4a) | IC90 ([5]; Table 4b) | IC90 (Rhizoctonia solani (Rs); Table 4a) | IC90 (Rhizoctonia solani (Rs); Table 4b) | IC90 (Septoria tritici (St); Table 4a) | IC90 (Septoria tritici (St); Table 4b)
CCOC(=O)c1sc2c(c1C)c(=O)n(C(C)(C)C(=O)NC(C)C)c(=O)n2C[C@H](OCCO)c1cc(F)ccc1OC [Compound I-18, (R)-ethyl 1-(2-(5-fluoro-2-methoxyphenyl)-2-(2-hydroxy-ethoxy)ethyl)-3-(1-(isopropylamino)-2-methyl-1-oxopropan-2-yl)-5-methyl-2,4-dioxo-1,2,3,4-tetrahydrothieno[2,3-d]pyrimidine-6-carboxylate] | 1.1 to 2 µg/mL (≈ 1.85 to 3.37 µM) | 1.1 to 2 µg/mL (≈ 1.85 to 3.37 µM) | 2.1 to 4 µg/mL (≈ 3.54 to 6.74 µM) | 1.1 to 2 µg/mL (≈ 1.85 to 3.37 µM) | 2 µg/mL (≈ 3.37 µM) | 2 µg/mL (≈ 3.37 µM) | 0.4 µg/mL (≈ 0.674 µM) | 0.4 µg/mL (≈ 0.674 µM) | 0.4 µg/mL (≈ 0.674 µM) | 0.4 µg/mL (≈ 0.674 µM) | 0.08 µg/mL (≈ 0.135 µM) | 0.08 µg/mL (≈ 0.135 µM) | 2 µg/mL (≈ 3.37 µM) | 2 µg/mL (≈ 3.37 µM) | ≥ 50 µg/mL | ≥ 50 µg/mL | 0.08 µg/mL (≈ 0.135 µM) | 0.08 µg/mL (≈ 0.135 µM) | ≥ 50 µg/mL | ≥ 50 µg/mL
CCOC(=O)c1sc2c(c1C)c(=O)n(C(C)(C)C(=O)NC(C)C)c(=O)n2C[C@H](O)c1cc(F)ccc1OC [Compound I-19, (R)-ethyl 1-(2-(5-fluoro-2-methoxyphenyl)-2-hydroxyethyl)-3-(1-(isopropylamino)-2-methyl-1-oxopropan-2-yl)-5-methyl-2,4-dioxo-1,2,3,4-tetrahydrothieno[2,3-d]pyrimidine-6-carboxylate] |  | 0.25 to 1 µg/mL (≈ 0.455 to 1.82 µM) |  | 2.1 to 4 µg/mL (≈ 3.82 to 7.28 µM) | 0.4 µg/mL (≈ 0.728 µM) | 0.4 µg/mL (≈ 0.728 µM) | 2 µg/mL (≈ 3.64 µM) | 2 µg/mL (≈ 3.64 µM) | 2 µg/mL (≈ 3.64 µM) | 2 µg/mL (≈ 3.64 µM) | 0.08 µg/mL (≈ 0.146 µM) | 0.08 µg/mL (≈ 0.146 µM) | 0.08 µg/mL (≈ 0.146 µM) | 0.08 µg/mL (≈ 0.146 µM) | ≥ 50 µg/mL | ≥ 50 µg/mL | 0.4 µg/mL (≈ 0.728 µM) | 0.4 µg/mL (≈ 0.728 µM) | ≥ 50 µg/mL | ≥ 50 µg/mL
CCOC(=O)c1sc2c(c1C)c(=O)n([C@@H](C)C(=O)NC(C)C)c(=O)n2C[C@H](OCCC#N)c1cc(F)ccc1OC [Compound I-20, ethyl 1-((R)-2-(2-cyanoethoxy)-2-(5-fluoro-2-methoxy-phenyl)ethyl)-3-((S)-1-(isopropylamino)-1-oxopropan-2-yl)-5-methyl-2,4-dioxo-1,2,3,4-tetrahydrothieno[2,3-d]pyrimidine-6-carboxylate] |  | 2.1 to 4 µg/mL (≈ 3.57 to 6.8 µM) |  | 2.1 to 4 µg/mL (≈ 3.57 to 6.8 µM) |  | 2 µg/mL (≈ 3.4 µM) |  | 10 µg/mL (≈ 17 µM) |  | 10 µg/mL (≈ 17 µM) |  | 0.4 µg/mL (≈ 0.68 µM) |  | 10 µg/mL (≈ 17 µM) |  | ≥ 50 µg/mL |  | ≥ 50 µg/mL |  | ≥ 50 µg/mL
CCOC(=O)c1sc2c(c1C)c(=O)n([C@H](C)C(=O)NC(C)C)c(=O)n2C[C@H](OCCC#N)c1cc(F)ccc1OC [Compound I-21, ethyl 1-((R)-2-(2-cyanoethoxy)-2-(5-fluoro-2-methoxyphenyl)ethyl)-3-((R)-1-(isopropylamino)-1-oxopropan-2-yl)-5-methyl-2,4-dioxo-1,2,3,4-tetrahydrothieno[2,3-d]pyrimidine-6-carboxylate] |  | 1.1 to 2 µg/mL (≈ 1.87 to 3.4 µM) |  | 2.1 to 4 µg/mL (≈ 3.57 to 6.8 µM) |  | 0.4 µg/mL (≈ 0.68 µM) |  | 0.4 µg/mL (≈ 0.68 µM) |  | 0.4 µg/mL (≈ 0.68 µM) |  | 0.08 µg/mL (≈ 0.136 µM) |  | 0.4 µg/mL (≈ 0.68 µM) |  | 10 µg/mL (≈ 17 µM) |  | 0.08 µg/mL (≈ 0.136 µM) |  | ≥ 50 µg/mL
CCOC(=O)c1sc2c(c1C)c(=O)n(C(C)(C)C(=O)N1CCCC1)c(=O)n2C[C@H](O)c1cc(F)ccc1OC [Compound I-22, (R)-ethyl 1-(2-(5-fluoro-2-methoxyphenyl)-2-hydroxyethyl)-5-methyl-3-(2-methyl-1-oxo-1-(pyrrolidin-1-yl)propan-2-yl)-2,4-dioxo-1,2,3,4-tetrahydrothieno[2,3-d]pyrimidine-6-carboxylate] |  | 2.1 to 4 µg/mL (≈ 3.74 to 7.12 µM) |  | 0.25 to 1 µg/mL (≈ 0.445 to 1.78 µM) |  | 2 µg/mL (≈ 3.56 µM) |  | 10 µg/mL (≈ 17.8 µM) |  | ≥ 50 µg/mL |  | 2 µg/mL (≈ 3.56 µM) |  | 2 µg/mL (≈ 3.56 µM) |  | ≥ 50 µg/mL |  | 0.08 µg/mL (≈ 0.142 µM) |  | ≥ 50 µg/mL
CCOC(=O)c1sc2c(c1C)c(=O)n([C@@H](C)C(=O)N1CCCC1)c(=O)n2C[C@H](OCCC#N)c1cc(F)ccc1OC [Compound I-23, ethyl 1-((R)-2-(2-cyanoethoxy)-2-(5-fluoro-2-methoxy-phenyl)ethyl)-5-methyl-2,4-dioxo-3-((S)-1-oxo-1-(pyrrolidin-1-yl)propan-2-yl)-1,2,3,4-tetrahydrothieno[2,3-d]pyrimidine-6-carboxylate] |  | 2.1 to 4 µg/mL (≈ 3.5 to 6.66 µM) |  | > 4.1 µg/mL |  | 10 µg/mL (≈ 16.6 µM) |  | ≥ 50 µg/mL |  | 10 µg/mL (≈ 16.6 µM) |  | 2 µg/mL (≈ 3.33 µM) |  | ≥ 50 µg/mL |  | ≥ 50 µg/mL |  | 10 µg/mL (≈ 16.6 µM) |  | ≥ 50 µg/mL
CCOC(=O)c1sc2c(c1C)c(=O)n([C@H](C)C(=O)N1CCCC1)c(=O)n2C[C@H](OCCC#N)c1cc(F)ccc1OC [Compound I-24, ethyl 1-((R)-2-(2-cyanoethoxy)-2-(5-fluoro-2-methoxy-phenyl)ethyl)-5-methyl-2,4-dioxo-3-((R)-1-oxo-1-(pyrrolidin-1-yl)propan-2-yl)-1,2,3,4-tetrahydrothieno[2,3-d]pyrimidine-6-carboxylate] |  | 2.1 to 4 µg/mL (≈ 3.5 to 6.66 µM) |  | 0.25 to 1 µg/mL (≈ 0.416 to 1.66 µM) |  | 2 µg/mL (≈ 3.33 µM) |  | 2 µg/mL (≈ 3.33 µM) |  | 2 µg/mL (≈ 3.33 µM) |  | 0.08 µg/mL (≈ 0.133 µM) |  | 2 µg/mL (≈ 3.33 µM) |  | ≥ 50 µg/mL |  | 0.08 µg/mL (≈ 0.133 µM) |  | ≥ 50 µg/mL
CCOC(=O)c1sc2c(c1C)c(=O)n([C@@H](C)C(N)=O)c(=O)n2C[C@H](OCCC#N)c1cc(F)ccc1OC [Compound I-25, ethyl 3-((S)-1-amino-1-oxopropan-2-yl)-1-((R)-2-(2-cyanoethoxy)-2-(5-fluoro-2-methoxyphenyl)ethyl)-5-methyl-2,4-dioxo-1,2,3,4-tetrahydrothieno[2,3-d]pyrimidine-6-carboxylate] |  | 2.1 to 4 µg/mL (≈ 3.84 to 7.32 µM) |  | 2.1 to 4 µg/mL (≈ 3.84 to 7.32 µM) |  | ≥ 50 µg/mL |  | ≥ 50 µg/mL |  | ≥ 50 µg/mL |  | 10 µg/mL (≈ 18.3 µM) |  | ≥ 50 µg/mL |  | ≥ 50 µg/mL |  | 0.4 µg/mL (≈ 0.732 µM) |  | ≥ 50 µg/mL
